Reference: patent US9302999B2, “Substituted triazoles as herbicides” (E. I. DU PONT DE NEMOURS AND COMPANY, priority 2012, dated 2016)

Legend:
rice (Oryza sativa) = test: Test B flooded paddy: rice; assay type: in vivo; conditions: Flood; 250 g ai/ha; applied to paddy water at 2-leaf stage; visually evaluated after 13 to 15 days
Outline: (§1)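 Each compound is applied to the floodwater of pots holding 2-leaf seedlings, water standing 3 cm over the soil throughout. Plants stay in a greenhouse 13 to 15 days before visual scoring against controls from 0 (no effect) to 100 (complete control).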

[1] = system: sedge, umbrella (small-flower umbrella sedge Cyperus difformis); test: Test B flooded paddy: sedge, umbrella; assay type: in vivo; conditions: Flood; 250 g ai/ha; applied to paddy water at 2-leaf stage; visually evaluated after 13 to 15 days
Outline: as §1

[2] = system: ducksalad (Heteranthera limosa); test: Test B flooded paddy: ducksalad; assay type: in vivo; conditions: Flood; 250 g ai/ha; applied to paddy water at 2-leaf stage; visually evaluated after 13 to 15 days
Outline: as §1

wild oat (Avena fatua) = test: Test C pre-/postemergence: wild oat; assay type: in vivo; conditions: Postemergence
Outline: (§2)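 Visual injury scored 0–100 (100 = complete control) against untreated controls after 13–15 greenhouse days. Surfactant-containing solvent formulations applied either to soil after sowing (loam/sand) or over 1- to 4-leaf plants, 2–18 cm tall.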

corn (Zea mays) = test: Test C pre-/postemergence: corn; assay type: in vivo
Outline: as §2

[3] = system: foxtail, giant (giant foxtail, Setaria faberii); test: Test C pre-/postemergence: foxtail, giant; assay type: in vivo
Outline: as §2

[4] = system: lambsquarters (Chenopodium album); test: Test C pre-/postemergence: lambsquarters; assay type: in vivo
Outline: as §2

soybean (Glycine max) = test: Test C pre-/postemergence: soybean; assay type: in vivo
Outline: as §2

[5] = system: velvetleaf (Abutilon theophrasti); test: Test C pre-/postemergence: velvetleaf; assay type: in vivo
Outline: as §2

Barnyardgrass = test: Test C postemergence: barnyardgrass; assay type: in vivo, Echinochloa crus-galli; conditions: 125 g ai/ha, scale 0 to 100, 0 no effect, 100 complete control
Waterhemp = test: Test C postemergence: waterhemp; assay type: in vivo; conditions: 62 g ai/ha, scale 0 to 100 (0 no effect, 100 complete control)
Outline: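 Visual ratings of 0 (no effect) to 100 (complete control) were made against controls 13-15 days after a postemergence spray, with plants kept in a greenhouse. Plants were 2-18 cm tall (1- to 4-leaf stage) in Redi-Earth peat/vermiculite medium at treatment.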

Oilseed Rape = test: Test C preemergence: oilseed rape; assay type: in vivo, Brassica napus; conditions: 125 g ai/ha, scale 0 to 100, 0 no effect, 100 complete control
[6] = 31 g ai/ha, scale 0 to 100 (0 no effect, 100 complete control)
[7] = 62 g ai/ha, scale 0 to 100 (0 no effect, 100 complete control)
[8] = 125 g ai/ha, scale 0 to 100, 0 no effect, 100 complete control
[9] = 250 g ai/ha, scale 0 to 100 (0 no effect, 100 complete control)
[10] = Postemergence, 31 g ai/ha, scale 0 to 100 (0 no effect, 100 complete control)
[11] = Postemergence, 62 g ai/ha, scale 0 to 100 (0 no effect, 100 complete control)
[12] = Postemergence, 125 g ai/ha, scale 0 to 100, 0 no effect, 100 complete control
[13] = Postemergence, 250 g ai/ha, scale 0 to 100
[14] = Preemergence, 31 g ai/ha, scale 0 (no effect) to 100 (complete control)
[15] = Preemergence, 62 g ai/ha, scale of 0 to 100, 0 is no effect, 100 is complete control
[16] = Preemergence, 125 g ai/ha, scale 0 to 100, 0 no effect, 100 complete control
[17] = Preemergence, 250 g ai/ha, scale 0 to 100, 0 no effect, 100 complete control
[18] = Postemergence, 250 g ai/ha, scale 0 to 100 (0 no effect, 100 complete control)

SMILES: CCCc1nn(-c2ccc(C(F)(F)F)cc2)nc1Oc1ccnc(C(F)(F)F)c1 [Compound 170]
- Plant response rating, Rice (0 to 100 scale, 0 is no effect, 100 is complete control) (rice (Oryza sativa)): 60
- Plant response rating, Sedge, Umbrella (0 to 100 scale, 0 is no effect, 100 is complete control) [1]: 90
- Plant response rating, Ducksalad (0 to 100 scale, 0 is no effect, 100 is complete control) [2]: 35
- Plant response rating, Oat, Wild (wild oat (Avena fatua); [6]): 30
- Plant response rating, Oat, Wild (wild oat (Avena fatua); [7]): 65
- Plant response rating, Oat, Wild (wild oat (Avena fatua); [8]): 85
- Plant response rating, Oat, Wild (wild oat (Avena fatua); [9]): 90
- Plant response rating, Corn (corn (Zea mays); [10]): 15
- Plant response rating, Corn (corn (Zea mays); [11]): 25
- Plant response rating, Corn (corn (Zea mays); [12]): 30
- Plant response rating, Corn (corn (Zea mays); [13]): 30
- Plant response rating, Corn (corn (Zea mays); [14]): 5
- Plant response rating, Corn (corn (Zea mays); [15]): 10
- Plant response rating, Corn (corn (Zea mays); [16]): 15
- Plant response rating, Corn (corn (Zea mays); [17]): 60
- Plant response rating, Foxtail, Giant [3, 10]: 55
- Plant response rating, Foxtail, Giant [3, 11]: 80
- Plant response rating, Foxtail, Giant [3, 12]: 98
- Plant response rating, Foxtail, Giant [3, 13]: 98
- Plant response rating, Foxtail, Giant [3, 14]: 98
- Plant response rating, Foxtail, Giant [3, 15]: 100
- Plant response rating, Foxtail, Giant [3, 16]: 100
- Plant response rating, Foxtail, Giant [3, 17]: 100
- Plant response rating, Lambsquarters [4, 10]: 85
- Plant response rating, Lambsquarters [4, 11]: 95
- Plant response rating, Lambsquarters [4, 12]: 95
- Plant response rating, Lambsquarters [4, 18]: 98
- Plant response rating, Lambsquarters [4, 14]: 85
- Plant response rating, Lambsquarters [4, 15]: 85
- Plant response rating, Lambsquarters [4, 16]: 98
- Plant response rating, Lambsquarters [4, 17]: 98
- Plant response rating, Soybean (soybean (Glycine max); [10]): 30
- Plant response rating, Soybean (soybean (Glycine max); [11]): 70
- Plant response rating, Soybean (soybean (Glycine max); [12]): 90
- Plant response rating, Soybean (soybean (Glycine max); [14]): 5
- Plant response rating, Soybean (soybean (Glycine max); [15]): 5
- Plant response rating, Soybean (soybean (Glycine max); [16]): 20
- Plant response rating, Soybean (soybean (Glycine max); [17]): 45
- Plant response rating, Velvetleaf [5, 10]: 75
- Plant response rating, Velvetleaf [5, 11]: 85
- Plant response rating, Velvetleaf [5, 12]: 85
- Plant response rating, Velvetleaf [5, 18]: 90
- Plant response rating, Velvetleaf [5, 14]: 60
- Plant response rating, Velvetleaf [5, 15]: 100
- Plant response rating, Velvetleaf [5, 16]: 100
- Plant response rating, Velvetleaf [5, 17]: 100
- Plant response rating, Barnyardgrass (Barnyardgrass): 85
- Plant response rating, Waterhemp (Waterhemp): 98
- Plant response rating, Oilseed Rape (Oilseed Rape): 100

SMILES: CCc1nn(-c2ccc(F)c(F)c2)nc1Oc1ccnc(C(F)(F)F)c1 [Compound 171]
- Plant response rating, Rice (0 to 100 scale, 0 is no effect, 100 is complete control) (rice (Oryza sativa)): 60
- Plant response rating, Sedge, Umbrella (0 to 100 scale, 0 is no effect, 100 is complete control) [1]: 85
- Plant response rating, Ducksalad (0 to 100 scale, 0 is no effect, 100 is complete control) [2]: 0
- Plant response rating, Oat, Wild (wild oat (Avena fatua); [6]): 5
- Plant response rating, Oat, Wild (wild oat (Avena fatua); [7]): 5
- Plant response rating, Oat, Wild (wild oat (Avena fatua); [8]): 10
- Plant response rating, Oat, Wild (wild oat (Avena fatua); [9]): 20
- Plant response rating, Corn (corn (Zea mays); [10]): 15
- Plant response rating, Corn (corn (Zea mays); [11]): 15
- Plant response rating, Corn (corn (Zea mays); [12]): 15
- Plant response rating, Corn (corn (Zea mays); [13]): 15
- Plant response rating, Corn (corn (Zea mays); [14]): 0
- Plant response rating, Corn (corn (Zea mays); [15]): 0
- Plant response rating, Corn (corn (Zea mays); [16]): 5
- Plant response rating, Corn (corn (Zea mays); [17]): 25
- Plant response rating, Foxtail, Giant [3, 10]: 25
- Plant response rating, Foxtail, Giant [3, 11]: 35
- Plant response rating, Foxtail, Giant [3, 12]: 55
- Plant response rating, Foxtail, Giant [3, 13]: 70
- Plant response rating, Foxtail, Giant [3, 14]: 98
- Plant response rating, Foxtail, Giant [3, 15]: 100
- Plant response rating, Foxtail, Giant [3, 16]: 100
- Plant response rating, Foxtail, Giant [3, 17]: 100
- Plant response rating, Lambsquarters [4, 10]: 75
- Plant response rating, Lambsquarters [4, 11]: 75
- Plant response rating, Lambsquarters [4, 12]: 95
- Plant response rating, Lambsquarters [4, 18]: 95
- Plant response rating, Lambsquarters [4, 14]: 100
- Plant response rating, Lambsquarters [4, 15]: 100
- Plant response rating, Lambsquarters [4, 17]: 100
- Plant response rating, Soybean (soybean (Glycine max); [10]): 25
- Plant response rating, Soybean (soybean (Glycine max); [11]): 35
- Plant response rating, Soybean (soybean (Glycine max); [12]): 40
- Plant response rating, Soybean (soybean (Glycine max); [14]): 0
- Plant response rating, Soybean (soybean (Glycine max); [15]): 0
- Plant response rating, Soybean (soybean (Glycine max); [16]): 5
- Plant response rating, Velvetleaf [5, 10]: 25
- Plant response rating, Velvetleaf [5, 11]: 25
- Plant response rating, Velvetleaf [5, 12]: 45
- Plant response rating, Velvetleaf [5, 18]: 75
- Plant response rating, Velvetleaf [5, 14]: 5
- Plant response rating, Velvetleaf [5, 15]: 25
- Plant response rating, Velvetleaf [5, 16]: 55
- Plant response rating, Velvetleaf [5, 17]: 65
- Plant response rating, Barnyardgrass (Barnyardgrass): 60
- Plant response rating, Waterhemp (Waterhemp): 75
- Plant response rating, Oilseed Rape (Oilseed Rape): 50
